According to ChEMBL document CHEMBL1201862, “PubChem BioAssay data set” (2004):
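1) Cells in 96-well plates. 2) Compound, 48 h, 5 concentrations. 3) Linear interpolation between surrounding doses. 4) Unreached endpoint = highest concentration. The concentration for 50% growth inhibition is given as GI50.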 Calls of active or inactive are those of the source. Cut-off read from the data, not from the text of the source: active = GI50 up to about 1.1 µM and inactive = higher.

How the values were obtained:
Test in all cases: growth of human tumour cells (NCI), 48 h
[1] = tested on: NCI-H226
[2] = tested on: OVCAR-3
[3] = tested on: SNB-19
[4] = tested on: UO-31
[5] = tested on: SK-MEL-2
[6] = tested on: KM12
[7] = tested on: T47D
[8] = tested on: M14
[9] = tested on: SNB-75
[10] = tested on: 786-0
[11] = tested on: SF-268
[12] = tested on: CCRF-CEM
[13] = tested on: SK-MEL-28
[14] = tested on: TK-10
[15] = tested on: DU-145
[16] = tested on: HOP-92
[17] = tested on: SF-295
[18] = tested on: MDA-MB-435
[19] = tested on: MOLT-4
[20] = tested on: HCC 2998

SMILES: Cc1csc2nc(-c3ccc(Cl)c([N+](=O)[O-])c3)c(/C=N/NC(=N)N)n12
- GI50 [1]: 1.67 µM (inactive)
- GI50 [2]: 1.96 µM (inactive)
- GI50 [3]: 1.3 µM (inactive)
- GI50 [4]: 1.12 µM (inactive)
- GI50 [5]: 1.22 µM (inactive)
- GI50 [6]: 1.75 µM (inactive)
- GI50 [7]: 1.81 µM (inactive)
- GI50 [8]: 1.74 µM (inactive)
- GI50 [9]: 1.57 µM (inactive)
- GI50 [10]: 1.49 µM (inactive)
- GI50 [11]: 1.71 µM (inactive)
- GI50 [12]: 1.01 µM (active)
- GI50 [13]: 1.82 µM (inactive)
- GI50 [14]: 2.2 µM (inactive)
- GI50 [15]: 2.16 µM (inactive)
- GI50 [16]: 0.163 µM (active)
- GI50 [17]: 1.4 µM (inactive)
- GI50 [18]: 1.69 µM (inactive)

SMILES: CC1=C(C(=O)OCCc2ccc([N+](=O)[O-])cc2)C(c2ccccc2C(F)(F)F)C(C(=O)OC(C)C)=C(C)N1 (centres undefined)
- GI50 [1]: 3.15 µM (inactive)
- GI50 [2]: 3.48 µM (inactive)
- GI50 [3]: 4.85 µM (inactive)
- GI50 [4]: 4.19 µM (inactive)
- GI50 [5]: 2.64 µM (inactive)
- GI50 [6]: 2.88 µM (inactive)
- GI50 [7]: 3.12 µM (inactive)
- GI50 [8]: 2.41 µM (inactive)
- GI50 [9]: 4.04 µM (inactive)
- GI50 [19]: 2.08 µM (inactive)
- GI50 [10]: 4.16 µM (inactive)
- GI50 [11]: 3.53 µM (inactive)
- GI50 [12]: 2.84 µM (inactive)
- GI50 [13]: 4.89 µM (inactive)
- GI50 [20]: 4.92 µM (inactive)
- GI50 [14]: 3.78 µM (inactive)
- GI50 [15]: 9.16 µM (inactive)
- GI50 [17]: 2.68 µM (inactive)
- GI50 [18]: 3.84 µM (inactive)

SMILES: O=C(/C=C/c1ccsc1)c1ccsc1
- GI50 [1]: 17 µM (inactive)
- GI50 [3]: 20.2 µM (inactive)
- GI50 [4]: 15.4 µM (inactive)
- GI50 [5]: > 100 µM (inactive)
- GI50 [6]: 18.9 µM (inactive)
- GI50 [7]: 28.2 µM (inactive)
- GI50 [8]: 33.7 µM (inactive)
- GI50 [9]: 37 µM (inactive)
- GI50 [19]: 17.6 µM (inactive)
- GI50 [10]: 21.4 µM (inactive)
- GI50 [11]: 44.8 µM (inactive)
- GI50 [12]: 19.1 µM (inactive)
- GI50 [13]: 37.1 µM (inactive)
- GI50 [20]: 19.5 µM (inactive)
- GI50 [14]: 23.8 µM (inactive)
- GI50 [15]: > 100 µM (inactive)
- GI50 [17]: 40.7 µM (inactive)
- GI50 [18]: 22.5 µM (inactive)

SMILES: CC(=O)c1c2c(cc3c1CC1(Cc4cc5c(cc4C1)CCC5)C3)CCC2
- GI50 [2]: > 100 µM (inactive)
- GI50 [3]: > 100 µM (inactive)
- GI50 [4]: > 100 µM (inactive)
- GI50 [5]: > 100 µM (inactive)
- GI50 [7]: > 100 µM (inactive)
- GI50 [8]: > 100 µM (inactive)
- GI50 [9]: > 100 µM (inactive)
- GI50 [19]: > 100 µM (inactive)
- GI50 [10]: > 100 µM (inactive)
- GI50 [11]: > 100 µM (inactive)
- GI50 [12]: > 100 µM (inactive)
- GI50 [13]: > 100 µM (inactive)
- GI50 [20]: > 100 µM (inactive)
- GI50 [14]: > 100 µM (inactive)
- GI50 [15]: > 100 µM (inactive)
- GI50 [16]: > 100 µM (inactive)
- GI50 [17]: > 100 µM (inactive)
- GI50 [18]: > 100 µM (inactive)

SMILES: CN1C(=O)C(c2c[nH]c3ccccc23)N(C)C(=O)C1c1c[nH]c2ccccc12 (centres undefined)
- GI50 [2]: > 100 µM (inactive)
- GI50 [3]: > 10 µM (inactive)
- GI50 [4]: > 100 µM (inactive)
- GI50 [6]: > 100 µM (inactive)
- GI50 [7]: > 100 µM (inactive)
- GI50 [8]: > 100 µM (inactive)
- GI50 [9]: 33.8 µM (inactive)
- GI50 [19]: > 100 µM (inactive)
- GI50 [10]: 53.2 µM (inactive)
- GI50 [11]: 86.3 µM (inactive)
- GI50 [12]: > 100 µM (inactive)
- GI50 [13]: > 100 µM (inactive)
- GI50 [20]: > 100 µM (inactive)
- GI50 [14]: > 100 µM (inactive)
- GI50 [15]: > 100 µM (inactive)
- GI50 [16]: 37.2 µM (inactive)
- GI50 [17]: > 100 µM (inactive)
- GI50 [18]: > 100 µM (inactive)

SMILES: COc1ccc(CCN2C(=O)CC34C=CC(CC3C2=O)O4)cc1OC (centres undefined)
- GI50 [2]: > 100 µM (inactive)
- GI50 [3]: > 100 µM (inactive)
- GI50 [4]: > 100 µM (inactive)
- GI50 [5]: > 100 µM (inactive)
- GI50 [6]: > 100 µM (inactive)
- GI50 [7]: > 100 µM (inactive)
- GI50 [8]: > 100 µM (inactive)
- GI50 [19]: > 100 µM (inactive)
- GI50 [10]: > 100 µM (inactive)
- GI50 [12]: > 100 µM (inactive)
- GI50 [13]: > 100 µM (inactive)
- GI50 [20]: > 100 µM (inactive)
- GI50 [14]: > 100 µM (inactive)
- GI50 [15]: > 100 µM (inactive)
- GI50 [16]: 97.5 µM (inactive)
- GI50 [17]: > 100 µM (inactive)
- GI50 [18]: > 100 µM (inactive)

SMILES: Oc1c(Cl)c(Cl)c(O)c(CCNc2ccc3ncccc3c2)c1Cl
- GI50 [2]: 15.5 µM (inactive)
- GI50 [3]: 13.3 µM (inactive)
- GI50 [4]: 12.2 µM (inactive)
- GI50 [5]: 6.32 µM (inactive)
- GI50 [6]: 3.91 µM (inactive)
- GI50 [7]: 11 µM (inactive)
- GI50 [8]: 11.5 µM (inactive)
- GI50 [9]: 16.1 µM (inactive)
- GI50 [19]: 1.15 µM (inactive)
- GI50 [10]: 16.5 µM (inactive)
- GI50 [11]: 5.13 µM (inactive)
- GI50 [13]: 24.5 µM (inactive)
- GI50 [20]: 12.9 µM (inactive)
- GI50 [14]: 13.4 µM (inactive)
- GI50 [15]: 21.5 µM (inactive)
- GI50 [16]: 30.5 µM (inactive)
- GI50 [17]: 11.4 µM (inactive)
- GI50 [18]: 5.2 µM (inactive)

SMILES: Clc1ccc(C(OCn2ccnc2)c2nc3ccccc3[nH]2)c(Cl)c1 (centres undefined)
- GI50 [2]: 23.5 µM (inactive)
- GI50 [3]: 89.3 µM (inactive)
- GI50 [4]: 23.7 µM (inactive)
- GI50 [5]: 42.7 µM (inactive)
- GI50 [6]: > 100 µM (inactive)
- GI50 [7]: 39.1 µM (inactive)
- GI50 [8]: 54.2 µM (inactive)
- GI50 [9]: 28.9 µM (inactive)
- GI50 [19]: 29.6 µM (inactive)
- GI50 [10]: 39 µM (inactive)
- GI50 [11]: 61.8 µM (inactive)
- GI50 [12]: 38.6 µM (inactive)
- GI50 [13]: 48.3 µM (inactive)
- GI50 [20]: 45.5 µM (inactive)
- GI50 [14]: 31.7 µM (inactive)
- GI50 [15]: 64.4 µM (inactive)
- GI50 [16]: 0.312 µM (active)
- GI50 [17]: 29.6 µM (inactive)
- GI50 [18]: 25.2 µM (inactive)

SMILES: CSc1cc(Cl)c(C(=O)Nc2ccccc2)cc1S(=O)(=O)n1ccnc1O
- GI50 [2]: > 100 µM (inactive)
- GI50 [3]: > 100 µM (inactive)
- GI50 [4]: > 100 µM (inactive)
- GI50 [5]: > 100 µM (inactive)
- GI50 [6]: > 100 µM (inactive)
- GI50 [7]: > 100 µM (inactive)
- GI50 [8]: > 100 µM (inactive)
- GI50 [9]: > 100 µM (inactive)
- GI50 [19]: > 100 µM (inactive)
- GI50 [10]: > 100 µM (inactive)
- GI50 [11]: > 100 µM (inactive)
- GI50 [12]: > 100 µM (inactive)
- GI50 [13]: > 100 µM (inactive)
- GI50 [20]: > 100 µM (inactive)
- GI50 [14]: > 100 µM (inactive)
- GI50 [15]: > 100 µM (inactive)
- GI50 [16]: > 100 µM (inactive)
- GI50 [18]: > 100 µM (inactive)

SMILES: CC(=O)OCC1OC(OCC2OC(N3C(=S)N[C@H]([C@@H](O)[C@H](O)[C@H](O)CO)[C@H]3O)C(OC(C)=O)C(OC(C)=O)C2OC(C)=O)C(OC(C)=O)C(OC(C)=O)C1OC(C)=O (some centres undefined)
- GI50 [2]: > 100 µM (inactive)
- GI50 [3]: > 100 µM (inactive)
- GI50 [4]: > 100 µM (inactive)
- GI50 [5]: > 100 µM (inactive)
- GI50 [6]: > 100 µM (inactive)
- GI50 [7]: 61.8 µM (inactive)
- GI50 [8]: > 100 µM (inactive)
- GI50 [19]: > 100 µM (inactive)
- GI50 [10]: > 100 µM (inactive)
- GI50 [11]: > 100 µM (inactive)
- GI50 [13]: > 100 µM (inactive)
- GI50 [20]: > 100 µM (inactive)
- GI50 [14]: > 100 µM (inactive)
- GI50 [15]: > 100 µM (inactive)
- GI50 [16]: 33.5 µM (inactive)
- GI50 [17]: > 100 µM (inactive)
- GI50 [18]: > 100 µM (inactive)

SMILES: Oc1cccc(-c2cc(O)c3cc4c(cc3n2)OCO4)c1
- GI50 [1]: 2.9 µM (inactive)
- GI50 [2]: 0.193 µM (active)
- GI50 [3]: 3.84 µM (inactive)
- GI50 [4]: 4.23 µM (inactive)
- GI50 [5]: 0.851 µM (active)
- GI50 [6]: 0.561 µM (active)
- GI50 [7]: 23.7 µM (inactive)
- GI50 [8]: 3.58 µM (inactive)
- GI50 [9]: 0.379 µM (active)
- GI50 [19]: 3.77 µM (inactive)
- GI50 [10]: 5.52 µM (inactive)
- GI50 [11]: 1.71 µM (inactive)
- GI50 [12]: 0.54 µM (active)
- GI50 [13]: 2.81 µM (inactive)
- GI50 [20]: 4.28 µM (inactive)
- GI50 [14]: 13.2 µM (inactive)
- GI50 [15]: 0.302 µM (active)
- GI50 [17]: 5.74 µM (inactive)
- GI50 [18]: 0.277 µM (active)
